Experiment [1] deals with Programmed cell death protein 1/Programmed cell death 1 ligand 1 (Homo sapiens, UniProt Q9NZQ7). Put plainly: Inhibition of PD-1/PD-L1 interaction (unknown origin) incubated for 24 hrs by HTRF assay. The class given is protein-complex assay. (In TR-FRET formats the signal depends on donor and acceptor labels being close together.)
The subject of the next experiment is A-375. Kind of experiment: Antiproliferative activity against human A-375 cells assessed as reduction in cell viability. Format: functional, cell-based.
Another experiment has as its system B16-F10. Put plainly: Antiproliferative activity against mouse B16-F10 cells assessed as reduction in cell viability. The class given is functional, cell-based.
The target of experiment [2] is Programmed cell death 1 ligand 1 (Mus musculus) (UniProt Q9EP73). Kind of experiment: Induction of PD-L1 degradation in mouse CT26 cells.
Experiment [3] has the same target. Put plainly: Induction of PD-L1 degradation in mouse B16-F10 cells.
The subject of experiment [4] is MC-38. Kind of experiment: Antitumor activity against mouse MC38 cells xenografted in BALB/c nude mouse assessed as inhibition of tumor growth at 2 mg/kg, po BID administered twice daily for 14 days relative to control. The class given is functional. More on the design: scale not given: the % may be the effect or the level left. The following applies: time 14 day.

In experiment [5] the test system is MC-38. Kind of experiment: Antitumor activity against mouse MC38 cells xenografted in BALB/c nude mouse assessed as inhibition of tumor growth at 20 mg/kg, po BID administered twice daily for 14 days relative to control. The note with it: time 14 day. The class given is functional. Further details: scale not given: the % may be the effect or the level left.
Experiment [6] deals with MC-38. Kind of experiment: Antitumor activity against mouse MC38 cells xenografted in BALB/c nude mouse assessed as inhibition of tumor growth at 200 mg/kg, po BID administered twice daily for 14 days relative to control. The class given is functional. More on the design: scale not given: the % may be the effect or the level left. The note with it: time 14 day.
A further experiment concerns BGC-823. Kind of experiment: PD-L1 degradation in human PD-L1 […] BGC-823 cells assessed as PD-L1 degradation rate at 10 to 20 uM incubated for 5 days by flow cytometry relative to control. The note with it: dose 10-20 µM, time 5 day. (In general: In flow cytometry, cells or beads pass a laser one at a time.)
A short description of experiment [7]: Antitumor activity against humanized mouse MC38-hPD-L1 cells implanted in hPD-1 knockin C57BL/6 mouse assessed as reduction in tumor cell proliferation at 10 mg/kg, ip administered for 7 days starting from day 7 post tumor implantation by flow cytometry analysis relative to control. Further details: scale not given: the % may be the effect or the level left. The note with it: time 7 day.

pIC50: −log10 of the molar value. A value given as a limit tells only on which side of the number the result lay.

Programmed cell death protein 1/Programmed cell death 1 ligand 1, sequence (Q15116 whole entry): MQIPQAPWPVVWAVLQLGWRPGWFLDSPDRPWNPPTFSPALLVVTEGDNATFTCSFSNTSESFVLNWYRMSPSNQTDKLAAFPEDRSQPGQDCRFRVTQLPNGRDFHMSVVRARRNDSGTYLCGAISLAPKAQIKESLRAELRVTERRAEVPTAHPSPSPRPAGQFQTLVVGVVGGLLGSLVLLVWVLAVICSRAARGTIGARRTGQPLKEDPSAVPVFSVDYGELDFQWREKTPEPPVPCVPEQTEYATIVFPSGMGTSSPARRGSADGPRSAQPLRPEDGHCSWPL
Programmed cell death protein 1/Programmed cell death 1 ligand 1, sequence (Q9NZQ7 whole entry): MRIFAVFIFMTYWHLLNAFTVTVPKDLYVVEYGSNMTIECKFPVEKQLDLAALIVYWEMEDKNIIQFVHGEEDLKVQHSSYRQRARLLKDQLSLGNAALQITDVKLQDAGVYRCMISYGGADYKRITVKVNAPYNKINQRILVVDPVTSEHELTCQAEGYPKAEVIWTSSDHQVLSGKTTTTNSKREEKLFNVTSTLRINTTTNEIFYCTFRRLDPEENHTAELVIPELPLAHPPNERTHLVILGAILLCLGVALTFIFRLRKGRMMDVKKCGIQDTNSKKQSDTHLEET

As for `Cc1c(NC(=O)c2nc3c(n2C)CCN(C[C@H](C)O)C3)cccc1-c1cccc(NC(=O)c2nc3c(n2C)CCN(C)C3)c1Cl`, the pIC50 – broadly, −log10 of the IC50, conventionally taken in molar units – in experiment [1] was more than 9.00. For the molecule `COc1cc(OCc2cccc(-c3ccccc3)c2C)cc(OC)c1CNCCNC(=O)c1cn(CCOCCOCCOCCNc2cccc3c2C(=O)N(C2CCC(=O)NC2=O)C3=O)nn1` (stereo not given), the negative logarithm of the IC50 (pIC50) in the experiment on A-375 was 5.09; in the experiment on B16-F10, 4.85. In the case of `Cc1c(COc2cc(OCc3cccc(C#N)c3)c(CN3C[C@H](O)C[C@@H]3C(=O)O)cc2Cl)cccc1-c1ccc2c(c1)OCCO2`, the DC50 (commonly the concentration giving 50% degradation) in experiment [2] was 350 nM; in experiment [3], 390 nM.

Turning to `Cc1c(Nc2nccc3cc(CN4CC[C@@H](O)C4)cnc23)cccc1-c1cccc(-c2nc3cc(CN4CC[C@@H](C(=O)O)C4)cc(C#N)c3o2)c1C`, the Activity amounted to 32% in the experiment with MC-38 [4], 66% in the experiment on MC-38 [5] and 69% in the experiment with MC-38 [6].

In the case of `Cc1nc(C)c(C(=O)OCc2ccccc2)c(CC(C)(C)C)c1C(=O)OCc1ccccc1`, the PD-L1 degradation rate in the experiment with BGC-823 amounted to 66.99%. Consider `Cc1c(NC(=O)c2ccc(CNCCO)cn2)cccc1-c1cccc(NC(=O)c2ccc(CNCCO)cn2)c1C`, for which the Activity in experiment [7] is 60.4%.

For the origin of these results see ChEMBL document CHEMBL5385962, “Beyond inhibition against the PD-1/PD-L1 pathway: development of PD-L1 inhibitors targeting internalization and degradation of PD-L1” (RSC Med Chem, 2024).
